Legend:
Assay type in all cases: toxicity, cell-based
HEK-293T = test: Incucyte cell viability with HEK293T; details: human, 10 µM, compound concentration 10 uM
Fibroblast = test: Incucyte cell viability with human fibroblast; details: 10 µM, compound concentration 10 uM
U2OS = test: Incucyte cell viability with U2OS; details: human, 10 µM, compound concentration 10 uM
Also: unitless GR value; below 1 slowed growth and below 0 cell loss.

## COCCc1ccc(-c2c(C)nc3c(N4CCOCC4)ccnn23)cn1 [JNJ-42396302]
HEK-293T; 0 h, replicate number 2
  Growth Rate: 0.44
HEK-293T; 18 h, replicate number 1
  Growth Rate: 0.91
HEK-293T; 24 h, replicate number 1
  Growth Rate: 0.86
Fibroblast; 0 h, replicate number 1
  Growth Rate: 0.07
Fibroblast; 6 h, replicate number 2
  Growth Rate: 0.78
Fibroblast; 12 h, replicate number 1
  Growth Rate: 0.86
Fibroblast; 12 h, replicate number 2
  Growth Rate: 0.81
Fibroblast; 18 h, replicate number 1
  Growth Rate: 0.88
Fibroblast; 18 h, replicate number 2
  Growth Rate: 0.84
Fibroblast; 24 h, replicate number 1
  Growth Rate: 0.86
Fibroblast; 24 h, replicate number 2
  Growth Rate: 0.91
U2OS; 0 h, replicate number 1
  Growth Rate: -0.6
U2OS; 0 h, replicate number 2
  Growth Rate: 0.07
U2OS; 6 h, replicate number 2
  Growth Rate: 0.56
U2OS; 12 h, replicate number 1
  Growth Rate: 0.98
U2OS; 12 h, replicate number 2
  Growth Rate: 0.93
U2OS; 18 h, replicate number 2
  Growth Rate: 0.99

## CN1CCN(c2ccnc(NCCc3ccccc3)n2)CC1 [TP-040n]
HEK-293T; 6 h, replicate number 1
  Growth Rate: 0.2
HEK-293T; 6 h, replicate number 2
  Growth Rate: 0.09
HEK-293T; 12 h, replicate number 1
  Growth Rate: 0.39
HEK-293T; 12 h, replicate number 2
  Growth Rate: 0.3
HEK-293T; 18 h, replicate number 1
  Growth Rate: 0.42
HEK-293T; 18 h, replicate number 2
  Growth Rate: 0.35
HEK-293T; 24 h, replicate number 1
  Growth Rate: 0.41
HEK-293T; 24 h, replicate number 2
  Growth Rate: 0.4
Fibroblast; 0 h, replicate number 1
  Growth Rate: -1
Fibroblast; 12 h, replicate number 1
  Growth Rate: 0.8
Fibroblast; 12 h, replicate number 2
  Growth Rate: 0.9
Fibroblast; 18 h, replicate number 1
  Growth Rate: 0.74
Fibroblast; 18 h, replicate number 2
  Growth Rate: 0.63
Fibroblast; 24 h, replicate number 1
  Growth Rate: 0.58
Fibroblast; 24 h, replicate number 2
  Growth Rate: 0.53
U2OS; 6 h, replicate number 2
  Growth Rate: -0.72
U2OS; 12 h, replicate number 1
  Growth Rate: 1
U2OS; 18 h, replicate number 1
  Growth Rate: 0.94
U2OS; 18 h, replicate number 2
  Growth Rate: 0.96
U2OS; 24 h, replicate number 2
  Growth Rate: 0.87

## O=C(Nc1ccccc1Br)N[C@@H]1CCN(c2ccc(C(F)(F)F)cn2)C1 [SB-705498]
HEK-293T; 6 h, replicate number 2
  Growth Rate: -0.43
HEK-293T; 12 h, replicate number 1
  Growth Rate: 0.76
HEK-293T; 12 h, replicate number 2
  Growth Rate: -0.08
HEK-293T; 18 h, replicate number 1
  Growth Rate: 0.32
HEK-293T; 18 h, replicate number 2
  Growth Rate: 0.1
HEK-293T; 24 h, replicate number 1
  Growth Rate: 0.31
HEK-293T; 24 h, replicate number 2
  Growth Rate: 0.07
Fibroblast; 0 h, replicate number 1
  Growth Rate: 0.33
Fibroblast; 0 h, replicate number 2
  Growth Rate: 0.7
Fibroblast; 6 h, replicate number 1
  Growth Rate: 0.4
Fibroblast; 6 h, replicate number 2
  Growth Rate: -0.3
Fibroblast; 12 h, replicate number 2
  Growth Rate: 0.55
Fibroblast; 18 h, replicate number 2
  Growth Rate: 0.51
Fibroblast; 24 h, replicate number 1
  Growth Rate: 0.34
Fibroblast; 24 h, replicate number 2
  Growth Rate: 0.58
U2OS; 0 h, replicate number 1
  Growth Rate: -0.73
U2OS; 0 h, replicate number 2
  Growth Rate: -0.91
U2OS; 6 h, replicate number 1
  Growth Rate: 0.99
U2OS; 12 h, replicate number 1
  Growth Rate: 0.83

## CCCCC[C@@](C)(O)/C=C/[C@H]1C(=O)CC(O)C1C/C=C\CCCC(=O)O (stereo not given in full)
HEK-293T; 0 h, replicate number 1
  Growth Rate: -0.27
HEK-293T; 0 h, replicate number 2
  Growth Rate: 0.17
HEK-293T; 12 h, replicate number 2
  Growth Rate: 0.96
Fibroblast; 6 h, replicate number 2
  Growth Rate: -0.92
Fibroblast; 12 h, replicate number 1
  Growth Rate: 0.71
Fibroblast; 12 h, replicate number 2
  Growth Rate: 0.2
Fibroblast; 18 h, replicate number 2
  Growth Rate: 0.57
Fibroblast; 24 h, replicate number 2
  Growth Rate: 0.71
U2OS; 6 h, replicate number 1
  Growth Rate: 0.49
U2OS; 24 h, replicate number 1
  Growth Rate: 0.94
U2OS; 24 h, replicate number 2
  Growth Rate: 1

## C=CC(=O)N1CCC[C@@H](n2nc(C(=O)Nc3ccc(CC(=O)N(C)C)c(C)c3C)c3c(N)ncnc32)C1
HEK-293T; 0 h, replicate number 1
  Growth Rate: -0.26
HEK-293T; 0 h, replicate number 2
  Growth Rate: -0.68
Fibroblast; 0 h, replicate number 1
  Growth Rate: 0.74
Fibroblast; 0 h, replicate number 2
  Growth Rate: -1
Fibroblast; 6 h, replicate number 1
  Growth Rate: -0.17
Fibroblast; 12 h, replicate number 1
  Growth Rate: -1
Fibroblast; 24 h, replicate number 1
  Growth Rate: 0.16
U2OS; 0 h, replicate number 2
  Growth Rate: -0.77

## O=C1CSC(=O)N1C(CCc1ccncc1)COc1ccc(-c2cccc([N+](=O)[O-])c2)cc1 (stereo not given)
HEK-293T; 6 h, replicate number 1
  Growth Rate: -0.06
HEK-293T; 6 h, replicate number 2
  Growth Rate: 0.02
HEK-293T; 12 h, replicate number 1
  Growth Rate: 0.24
HEK-293T; 12 h, replicate number 2
  Growth Rate: 0.27
HEK-293T; 18 h, replicate number 1
  Growth Rate: 0.48
HEK-293T; 24 h, replicate number 1
  Growth Rate: 0.87
HEK-293T; 24 h, replicate number 2
  Growth Rate: 0.65
Fibroblast; 0 h, replicate number 1
  Growth Rate: 0.71
Fibroblast; 0 h, replicate number 2
  Growth Rate: -0.87
Fibroblast; 18 h, replicate number 1
  Growth Rate: 0.92
Fibroblast; 24 h, replicate number 1
  Growth Rate: 0.45
U2OS; 0 h, replicate number 1
  Growth Rate: -0.68
U2OS; 0 h, replicate number 2
  Growth Rate: -0.97
U2OS; 6 h, replicate number 1
  Growth Rate: 0.3
U2OS; 12 h, replicate number 1
  Growth Rate: 0.76
U2OS; 12 h, replicate number 2
  Growth Rate: 0.94
U2OS; 18 h, replicate number 1
  Growth Rate: 0.8
U2OS; 18 h, replicate number 2
  Growth Rate: 0.95
U2OS; 24 h, replicate number 1
  Growth Rate: 0.89
U2OS; 24 h, replicate number 2
  Growth Rate: 1

## Cn1cnc(Cn2ccc3ccc(CNCc4[nH]c5ccccc5c4[C@@H]4NC(=O)c5ccc(O)cc54)cc32)c1
HEK-293T; 0 h, replicate number 1
  Growth Rate: 0.61
Fibroblast; 0 h, replicate number 1
  Growth Rate: -0.98
Fibroblast; 0 h, replicate number 2
  Growth Rate: 0.6
Fibroblast; 6 h, replicate number 1
  Growth Rate: 0.3
Fibroblast; 6 h, replicate number 2
  Growth Rate: -0.87
Fibroblast; 12 h, replicate number 2
  Growth Rate: 0.75
Fibroblast; 18 h, replicate number 1
  Growth Rate: 0.8
Fibroblast; 18 h, replicate number 2
  Growth Rate: 0.38
Fibroblast; 24 h, replicate number 1
  Growth Rate: 0.98
Fibroblast; 24 h, replicate number 2
  Growth Rate: 0.88
U2OS; 6 h, replicate number 1
  Growth Rate: 0.54
U2OS; 6 h, replicate number 2
  Growth Rate: 0.95
U2OS; 12 h, replicate number 1
  Growth Rate: 0.8
U2OS; 12 h, replicate number 2
  Growth Rate: 0.81
U2OS; 18 h, replicate number 1
  Growth Rate: 0.99
U2OS; 18 h, replicate number 2
  Growth Rate: 0.85
U2OS; 24 h, replicate number 1
  Growth Rate: 0.95

## O=c1c(Br)ccc2n1C[C@@H]1CNC[C@H]2C1
HEK-293T; 6 h, replicate number 1
  Growth Rate: 0.59
HEK-293T; 12 h, replicate number 1
  Growth Rate: 0.4
HEK-293T; 18 h, replicate number 1
  Growth Rate: 0.61
HEK-293T; 24 h, replicate number 1
  Growth Rate: 0.89
Fibroblast; 0 h, replicate number 1
  Growth Rate: 0.52
Fibroblast; 0 h, replicate number 2
  Growth Rate: -0.26
Fibroblast; 6 h, replicate number 1
  Growth Rate: -0.94
Fibroblast; 24 h, replicate number 2
  Growth Rate: 0.89
U2OS; 6 h, replicate number 2
  Growth Rate: 0.92

## O=C(Cc1ccccc1)Nc1nnc(N2CC[C@@H]3[C@H]2CN3c2cccnn2)s1 [A-426]
HEK-293T; 6 h, replicate number 1
  Growth Rate: 0.31
HEK-293T; 12 h, replicate number 1
  Growth Rate: 0.39
HEK-293T; 18 h, replicate number 1
  Growth Rate: 0.67
HEK-293T; 24 h, replicate number 1
  Growth Rate: 0.85
Fibroblast; 6 h, replicate number 1
  Growth Rate: 0.66
Fibroblast; 6 h, replicate number 2
  Growth Rate: 0.16
Fibroblast; 12 h, replicate number 1
  Growth Rate: 0.76
Fibroblast; 12 h, replicate number 2
  Growth Rate: 0.86
Fibroblast; 18 h, replicate number 1
  Growth Rate: 0.8
Fibroblast; 18 h, replicate number 2
  Growth Rate: 0.69
Fibroblast; 24 h, replicate number 1
  Growth Rate: 0.73
U2OS; 0 h, replicate number 1
  Growth Rate: -0.69
U2OS; 6 h, replicate number 1
  Growth Rate: 0.79
U2OS; 12 h, replicate number 1
  Growth Rate: 0.69
U2OS; 18 h, replicate number 1
  Growth Rate: 0.77
U2OS; 24 h, replicate number 1
  Growth Rate: 0.84

## O=C(/N=c1\sccn1Cc1ccccc1)c1c[nH]c2ncccc12
HEK-293T; 0 h, replicate number 1
  Growth Rate: -0.78
HEK-293T; 0 h, replicate number 2
  Growth Rate: -0.86
Fibroblast; 6 h, replicate number 1
  Growth Rate: -1
U2OS; 0 h, replicate number 2
  Growth Rate: -0.96

## N#Cc1ccc(COc2ccc(Br)cc2CNCCO)cn1.O=CO
HEK-293T; 0 h, replicate number 2
  Growth Rate: 0.83
HEK-293T; 18 h, replicate number 1
  Growth Rate: 1
Fibroblast; 6 h, replicate number 2
  Growth Rate: 0.73
Fibroblast; 12 h, replicate number 1
  Growth Rate: 0.85
Fibroblast; 12 h, replicate number 2
  Growth Rate: 0.87
Fibroblast; 18 h, replicate number 2
  Growth Rate: 0.6
Fibroblast; 24 h, replicate number 2
  Growth Rate: 0.89
U2OS; 12 h, replicate number 1
  Growth Rate: 1

## CN1CCN(c2nc(N)c3ccccc3n2)CC1
HEK-293T; 0 h, replicate number 1
  Growth Rate: 0.4
HEK-293T; 0 h, replicate number 2
  Growth Rate: 0.8
HEK-293T; 6 h, replicate number 2
  Growth Rate: 0.91
Fibroblast; 6 h, replicate number 1
  Growth Rate: 0.45
Fibroblast; 12 h, replicate number 1
  Growth Rate: -1
Fibroblast; 12 h, replicate number 2
  Growth Rate: 0.67
Fibroblast; 18 h, replicate number 1
  Growth Rate: 0.78
U2OS; 0 h, replicate number 2
  Growth Rate: -0.89
U2OS; 6 h, replicate number 1
  Growth Rate: 0.43
U2OS; 6 h, replicate number 2
  Growth Rate: 0.36
U2OS; 12 h, replicate number 1
  Growth Rate: 0.81
U2OS; 12 h, replicate number 2
  Growth Rate: 0.53
U2OS; 18 h, replicate number 1
  Growth Rate: 0.76
U2OS; 24 h, replicate number 1
  Growth Rate: 0.77
U2OS; 24 h, replicate number 2
  Growth Rate: 0.83

## NC(=O)C1CCCc2c1[nH]c1ccc(Cl)cc21 (stereo not given)
HEK-293T; 0 h, replicate number 1
  Growth Rate: 0.75
HEK-293T; 0 h, replicate number 2
  Growth Rate: -0.98
HEK-293T; 6 h, replicate number 2
  Growth Rate: 0.22
HEK-293T; 12 h, replicate number 2
  Growth Rate: 0.53
HEK-293T; 18 h, replicate number 2
  Growth Rate: 0.66
HEK-293T; 24 h, replicate number 2
  Growth Rate: 0.79
Fibroblast; 0 h, replicate number 2
  Growth Rate: 0.51
Fibroblast; 12 h, replicate number 2
  Growth Rate: 0.9
Fibroblast; 24 h, replicate number 2
  Growth Rate: 0.88
U2OS; 0 h, replicate number 1
  Growth Rate: 0.85
U2OS; 0 h, replicate number 2
  Growth Rate: 0.68
U2OS; 6 h, replicate number 1
  Growth Rate: 0.7
U2OS; 12 h, replicate number 1
  Growth Rate: 1
U2OS; 18 h, replicate number 1
  Growth Rate: 0.88
U2OS; 24 h, replicate number 1
  Growth Rate: 1
U2OS; 24 h, replicate number 2
  Growth Rate: 0.96

Reference: ChEMBL document CHEMBL5303304, “EUbOPEN Chemogenomics Library - IncuCyte” (2023)
